Where a chain is given by its changes, count along the chain named. Blank lines part the entries; values can stand above or below the substance they belong to. d = 2'-deoxy (DNA); r = 2'-OH (RNA)
Legend:
[1] = tested on: BMP responsive sequence; assay: Luciferase reporter after siRNA knockdown of ACVR1 or BMPR1A in FOP patient derived cells treated with activin A; assay type: cell-based, human; conditions: activin A 16 hours
Procedure: Patient iPS cell line-derived mesenchymal stem cell-like cells were prepared by the same method as Example 1. The cells were transfected with a Firefly luciferase reporter plasmid having the BMP responsive sequence in the promoter region, a plasmid having a nucleic acid sequence coding for Renilla luciferase downstream of the CMV promoter, as an internal standard, and siRNA for ACVR1 or BMPR1A, using a Lipofectamine 2000 (product of Invitrogen Corp.), for knockdown of ACVR1 or BMPR1A expression. BMPR1A is a type I receptor that transmits the BMP signal. The siRNA used for knockdown was siRNA purchased from Applied Biosystems, having two different sequences for each gene (Catalog Nos. ACVR1:S975, S976, BMPR1A:S281, S282). The cells were also cultured for 16 hours with addition of activin A in the same manner as Example 1. The cells were then solubilized and the luciferase activity was measured. In FIG. 5, the bar graph indicates the mean values for each treated group, and the error bars represent S.D. Here, the sequences of the siRNA used for the test were S975: sense strand: 5′-GGAUCAUUCGUGUACAUCAtt-3′ (SEQ ID NO: 37), antisense strand: 5′-UGAUGUACACGAAUGAUCCaa-3′ (SEQ ID NO: 38), S976: sense strand: 5′-GUUGCUCUCCGAAAAUUUAtt-3′ (SEQ ID NO: 39), antisense strand: 5′-UAAAUUUUCGGAGAGCAACtc-3′ (SEQ ID NO: 40), S281: sense strand: 5′-GGCCGAUAUGGAGAAGUAUtt-3′ (SEQ ID NO: 41), antisense strand: 5′-AUACUUCUCCAUAUCGGCCtt-3′ (SEQ ID NO: 42), S282: sense strand: 5′-GAAUCUGGAUAGUAUGCUUtt-3′ (SEQ ID NO: 43), antisense strand: 5′-AAGCAUACUAUCCAGAUUCtg-3′ (SEQ ID NO: 44). The sequence portions printed in lowercase represent the overhang portions, as portions where the ribose backbone has been replaced with a deoxyribose backbone.

[2] = tested on: FOP patient derived cells; assay: Evaluation of binding inhibitors: chondrocyte differentiation of FOP patient derived cells in copresence of human activin A; assay type: cell-based; conditions: copresence of 30 ng/mL human activin A, 6 days; vs activin-treated group
Procedure: Patient iPS cell line-derived mesenchymal stem cell-like cells were prepared by the same method as Example 1. The mesenchymal stem cell-like cells were cultured for 6 days by the same method as Example 3, for differentiation to chondrocytes. The effect of each factor on differentiation to chondrocytes was examined, with neutralizing antibody for human activin A (product of R&D Systems, Inc., trade name: Human/Mouse/Rat Activin A βA subunit Antibody), follistatin (product of R&D Systems, Inc., trade name: Recombinant Human Follistatin 315 as 30-344), follistatin-like 3 (product of R&D Systems, Inc., trade name: Recombinant Human Follistatin-related Gene Protein/FLRG), ACVR2A-Fc chimeric protein (product of R&D Systems, Inc., trade name: Recombinant Human Activin RIIA Fc Chimera (CHO)), or ACVR2B-Fc chimeric protein (product of R&D Systems, Inc., trade name: Recombinant Human Activin RIIB Fc Chimera), in the copresence of 30 ng/mL of human activin A. The ACVR2A-Fc chimeric protein is a fusion protein in which a polypeptide fragment having the amino acid sequence of positions 20 to 134 of the amino acid sequence listed as SEQ ID NO: 12, and the Fc region of the human-derived antibody, are bonded via a linker sequence (Ile-Glu-Gly-Arg-Met-Asp). The ACVR2B-Fc chimeric protein is a fusion protein in which a polypeptide fragment having the amino acid sequence of positions 19 to 134 of the amino acid sequence listed as SEQ ID NO: 14, and the Fc region of the human-derived antibody, are bonded via a linker sequence (Ile-Glu-Gly-Arg-Met-Asp). The extent of differentiation to chondrocytes was evaluated by Alcian blue staining and sulfated glycosaminoglycan assay, similar to Example 3. In FIG. 6(B), the bar graph indicates the mean values for each treated group, and the error bars represent S.D.

[3] = molecular target: T1, FOP patient-derived ACVR1 (Homo sapiens, UniProt Q04771, R206H); assay: Luciferase reporter (BMP responsive sequence) transcription activity via ACVR1 in FOP patient derived cells; assay type: cell-based; conditions: ligand 1, 10, 100 ng/mL, 16 hours, significant at 10 and 100 ng/mL vs untreated group
T1 construct: The patient cells were confirmed to be cells having a typical FOP-associated mutation in the ACVR1 gene; endogenous in cells; host or cells: mesenchymal stem cell-like cells differentiated from an FOP patient-derived iPS cell line
T1 sequence (Q04771 21-509 R206H): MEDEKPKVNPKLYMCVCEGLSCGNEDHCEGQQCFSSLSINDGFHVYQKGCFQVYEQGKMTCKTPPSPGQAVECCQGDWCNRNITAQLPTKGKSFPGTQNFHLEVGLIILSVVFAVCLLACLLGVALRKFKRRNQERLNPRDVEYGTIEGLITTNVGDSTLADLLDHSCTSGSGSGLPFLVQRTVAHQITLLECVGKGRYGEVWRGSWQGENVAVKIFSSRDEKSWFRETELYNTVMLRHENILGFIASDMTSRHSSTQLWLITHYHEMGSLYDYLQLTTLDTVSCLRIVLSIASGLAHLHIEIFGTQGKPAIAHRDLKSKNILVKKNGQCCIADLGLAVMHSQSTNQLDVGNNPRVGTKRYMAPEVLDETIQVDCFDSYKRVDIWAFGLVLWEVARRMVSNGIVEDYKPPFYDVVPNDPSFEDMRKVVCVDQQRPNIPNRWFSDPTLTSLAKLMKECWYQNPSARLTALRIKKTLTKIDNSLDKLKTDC
Source text: (§1) Following the method of Yamanaka et al. (Cell, 2007, 131 (5), […]), FOP patient-derived iPS cells (hereunder also referred to as “patient-derived iPS cell line”) were established. The patient cells were confirmed to be cells having a typical FOP-associated mutation in the ACVR1 gene. The mutation is a substitution of the 206th arginine residue of the amino acid sequence of ACVR1 (the amino acid sequence listed as SEQ ID NO: 10) with a histidine residue. Next, for use as a control, an iPS cell line with the ACVR1 gene mutation repaired to the normal type (wild type) by gene repair by a BAC knockin vector (hereunder also referred to as “gene-corrected iPS cell clone” or “gene-rescued iPS cell clone”) was established.
(§2) The patient-derived iPS cell line and gene-corrected iPS cell line were cultured on the matrix of a Matrigel coated plate (trade name: Growth Factor Reduced (GFR)BD Matrigel® by Becton & Dickinson), using mTeSR1 (Stem Cell Technologies) for 2 days under feeder-free conditions. Next, using serum-free medium [F12 Nutrient Mixture (product of Gibco)/Iscove's Modified Dulbecco's Medium (IMDM) (product of Sigma-Aldrich Japan, KK.)/0.5% bovine serum albumin (BSA) (product of Sigma-Aldrich Japan, KK.)/1% Chemically Defined Lipid (CD-Lipid) (product of Gibco, trade name: Chemically Defined Lipid Concentrate)/15 μg/mL apotransferrin (product of Sigma-Aldrich Japan, KK., trade name: apo-Transferrin human)/7 μg/mL insulin (product of Wako Pure Chemical Industries, Ltd., trade name: Insulin, Human, recombinant)/0.45 mM 1-Thioglycerol (product of Sigma-Aldrich Japan, KK.)] with addition of 10 μM SB-431542 (product of Selleck Chemicals) and 1 μM CHIR99021 (product of Wako Pure Chemical Industries, Ltd.), the patient-derived iPS cell line and gene-corrected iPS cell line were further cultured for 1 week under feeder-free conditions for differentiation to neural crest cells. […]
(§3) After mixing Firefly luciferase reporter plasmid having the BMP responsive sequence in the promoter region (J. Biol. Chem., 2002, 277(7), 4883-4891) and a plasmid having a nucleic acid sequence coding for Renilla luciferase downstream from CMV promoter, as an internal standard (product of Promega Corp., trade name: phRL-CMV Vector), FuGene® HD (Promega Corp.) was used for transfection into the mesenchymal stem cell-like cells. […] Next, the luciferase activity was measured according to the protocol provided with a Dual-Glo Luciferase Assay System (product of Promega Corp.). The luminescence was detected using an EnVision Multilabel Counter (product of Perkin-Elmer). […]

[4] = molecular target: T2, wild type ACVR1 (Homo sapiens, UniProt Q04771); assay: Luciferase reporter (BMP responsive sequence) transcription activity in gene-corrected clone derived cells; assay type: cell-based; conditions: ligand 1, 10, 100 ng/mL, 16 hours
T2 construct: an iPS cell line with the ACVR1 gene mutation repaired to the normal type (wild type) by gene repair by a BAC knockin vector; endogenous in cells; host or cells: mesenchymal stem cell-like cells differentiated from the gene-corrected iPS cell clone
T2 sequence (Q04771 21-509): T1 sequence (Q04771 21-509 R206H) with H186R
Source text: as §1, §2, §3

Substance: ACVR1-1: siRNA for ACVR1 (Applied Biosystems S975), SEQ ID NO: 37/38 (chain 1 GGAUCAUUCGUGUACAUCATT; chain 2 UGAUGUACACGAAUGAUCCAA; sugars from the 5' end r19 d2, backbone not given here)
- transcription activation of the BMP responsive sequence by human activin A after siRNA knockdown [1]: disappeared

Substance: ACVR1-2: siRNA for ACVR1 (Applied Biosystems S976), SEQ ID NO: 39/40 (chain 1 GUUGCUCUCCGAAAAUUUATT; chain 2 UAAAUUUUCGGAGAGCAACTC; sugars from the 5' end r19 d2, backbone not given here)
- transcription activation of the BMP responsive sequence by human activin A after siRNA knockdown [1]: disappeared

Substance: ACVR2A-Fc chimeric protein: Fusion of positions 20 to 134 of SEQ ID NO: 12 with human antibody Fc region via linker Ile-Glu-Gly-Arg-Met-Asp
- differentiation of FOP patient derived cells to chondrocytes (Alcian blue staining, sulfated glycosaminoglycan assay) [2]: inhibited

Substance: BMPR1A-1: siRNA for BMPR1A (Applied Biosystems S281), SEQ ID NO: 41/42 (chain 1 GGCCGAUAUGGAGAAGUAUTT; chain 2 AUACUUCUCCAUAUCGGCCTT; sugars from the 5' end r19 d2, backbone not given here)
- transcription activation of the BMP responsive sequence by human activin A after siRNA knockdown [1]: not affected

Substance: BMPR1A-2: siRNA for BMPR1A (Applied Biosystems S282), SEQ ID NO: 43/44 (chain 1 GAAUCUGGAUAGUAUGCUUTT; chain 2 AAGCAUACUAUCCAGAUUCTG; sugars from the 5' end r19 d2, backbone not given here)
- transcription activation of the BMP responsive sequence by human activin A after siRNA knockdown [1]: not affected

- transcription activity via ACVR1 (firefly/Renilla luciferase activity, BMP responsive sequence) [3]: significantly increased
- transcription activity via ACVR1 (firefly/Renilla luciferase activity, BMP responsive sequence) [4]: not seen
Substance: human activin AB: Recombinant Human Activin AB (R&D Systems); heterodimer of βA chain and βB chain

- transcription activity via ACVR1 (firefly/Renilla luciferase activity, BMP responsive sequence) [3]: significantly increased
- transcription activity via ACVR1 (firefly/Renilla luciferase activity, BMP responsive sequence) [4]: not seen
Substance: human activin B: Recombinant Human Activin B (R&D Systems); homodimer of βB chains
